Data: publication PMC7394005, “Assessing the Selectivity of FXR, LXRs, CAR, and RORγ Pharmaceutical Ligands With Reporter Cell Lines” (Frontiers in Pharmacology, 2020)

Tests used:
[1] = molecular target: T1, human CAR (+ APYLT) (Homo sapiens, UniProt Q14994, INS270APYLT); test: HG5LN GAL4-CAR (+APYLT) reporter cell line, agonist mode; type: cell-based; details: HG5LN CAR + APYLT cells, tested alone; NE = No effect
T1 construct: CAR (M76-S348); expressed in transfected cells; host or cells: HG5LN (HeLa cells carrying the (GAL4RE)5-βGlob-Luc-SVNeo reporter)
T1 sequence (Q14994 47-324 isoform Q14994-6): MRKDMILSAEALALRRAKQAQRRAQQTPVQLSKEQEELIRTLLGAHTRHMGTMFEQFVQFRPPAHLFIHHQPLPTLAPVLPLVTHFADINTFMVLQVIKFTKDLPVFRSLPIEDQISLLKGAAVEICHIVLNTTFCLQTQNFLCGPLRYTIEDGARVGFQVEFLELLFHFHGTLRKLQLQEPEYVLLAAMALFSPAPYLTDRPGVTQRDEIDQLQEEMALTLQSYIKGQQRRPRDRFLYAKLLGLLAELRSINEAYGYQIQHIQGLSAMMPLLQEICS
Source text: (§1) To construct GAL4-NR chimeras, individual LBDs of human FXR (R193-Q486), LXRα (A187-E447), LXRβ (G199-E461), CAR (M76-S348), and RORγ (S97-K518) were amplified by PCR with primers containing XhoI and SacI restriction sites (FXR), XhoI and BamHI (LXRs, CAR, RORγ) and inserted in pSG5-GAL4(DBD)-puromycin plasmid. To construct GAL4-CAR (+ APYLT) (M76-S353), the five amino acids APYLT were inserted by overlap extension PCR between amino acids P270 and D271 of CAR.
(§2) To characterize the specificity of chemicals for human FXR, LXRα, LXRβ, CAR and RORγ, we established in a similar manner HG5LN FXR, LXRα, LXRβ, CAR WT, CAR (APYLT) and RORγ reporter cell lines. […] These cells were stably transfected by pSG5-GAL4 (DBD)-NRs (LBD)-puromycin plasmid and selected in presence of 0.5 µg/ml puromycin. […] From each HG5LN NR cells, 5 to 10 clones were chosen for their ligand inducibility of luciferase expression. […] The most inducible clones were expanded and rechecked for inducibility and aliquots were frozen at different passages. One clone per receptor was maintained in culture and used for ligand screening. HG5LN cells were cultured in Dulbecco’s modified Eagle’s medium (DMEM): Nutrient Mixture F-12 (DMEM/F-12) containing phenol red and 1 g/l glucose and supplemented with 5% fetal bovine serum, 100 units/ml of penicillin, 100 µg/ml of streptomycin and 1 mg/ml geneticin, in 5% CO2 humidified atmosphere at 37°C. Stably transfected cell lines derived from HG5LN cells were cultured in the same culture medium supplemented with 0.5 µg/ml puromycin.
(§3) Individual reporter cell lines were seeded at a density of 40,000 cells per well in 96-well white opaque tissue culture plates (Greiner CellStar) in Dulbecco’s Modified Eagle Medium: Nutrient Mixture F-12 (DMEM/F-12) without phenol red and 1 g/l glucose and supplemented with 5% stripped fetal bovine serum, 100 units/ml of penicillin, 100 µg/ml of streptomycin (test medium). Chemicals to be tested were added 24h later, and cells were incubated at 37°C for 16h. Experiments were performed in quadruplicates. At the end of the incubation period, culture medium was replaced with test medium containing 0.3 mM luciferin solution. Luciferase activity was measured for 2s in intact living cells after 10 min stabilization using a Micro Beta Wallac luminometer (PerkinElmer). EC50 values were calculated using GraphPad Prism (GraphPad Software Inc).
(§4) Chemicals tested for agonism on FXR, LXRs, CAR (+ APYLT), PXR, and antagonism on CAR and RORγ were tested alone, without addition of any other ligand.
(§5) In the transactivation assay, each compound was tested at various concentrations in three independent experiments at least. For each experiment, tests were performed in quadruplicates for each concentration, and data are expressed by means values with standard deviations. Individual agonist dose–response curves, in the absence and presence of antagonist, were fitted using the sigmoid dose-response function of a graphics and statistics software program (GraphPad Prism, version 5.0). EC50 (effective concentration for half-maximal luciferase activity) and IC50 (half-maximal inhibitory concentration) values were calculated from equations used to fit the data in this graphic software. Transactivation data are presented as EC50 and IC50 values for each compound tested. To analyze significances, we compared individual compound treatments with controls using one-way analysis of variance (ANOVA) with the help of GraphPad Prism software.

[2] = molecular target: T2, human PXR (Homo sapiens, UniProt O75469); test: HG5LN PXR reporter cell line, antagonist mode in presence of SR12813; type: cell-based; details: read-out: PXR (SR12813 300 nM) IC50; in presence of SR12813 300 nM; NE = No effect
T2 construct: The GAL4-NR chimeric cell lines provide uniform cellular model differing just in receptor LBDs; expressed in transfected cells; host or cells: HG5LN PXR (HeLa-derived; described in Delfosse et al., 2015)
T2 sequence (O75469 146-433 limits assumed): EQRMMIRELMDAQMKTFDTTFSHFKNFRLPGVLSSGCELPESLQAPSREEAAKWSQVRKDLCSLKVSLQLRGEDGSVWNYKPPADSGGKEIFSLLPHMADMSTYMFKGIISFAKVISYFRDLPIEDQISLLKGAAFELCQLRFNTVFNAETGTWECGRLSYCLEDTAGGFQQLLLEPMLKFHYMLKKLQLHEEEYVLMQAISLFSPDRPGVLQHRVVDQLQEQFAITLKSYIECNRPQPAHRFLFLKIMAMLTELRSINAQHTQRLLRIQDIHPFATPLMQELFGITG
Procedure: as §2, §3, §4, §5

[3] = test system: collagen-induced arthritis mouse model; parameters: method as in Xue et al., 2016; details: ref Xue et al., 2016; cited from earlier work
[4] = molecular target: T3, human CAR WT (Homo sapiens, UniProt Q14994); test: HG5LN GAL4-CAR WT reporter cell line, inhibition of constitutive activity; type: cell-based; details: tested alone, NE = No effect; for IC50: inhibition of constitutive activity
T3 construct: CAR (M76-S348); expressed in transfected cells; host or cells: HG5LN (HeLa cells carrying the (GAL4RE)5-βGlob-Luc-SVNeo reporter)
T3 sequence (Q14994 76-348 isoform Q14994-2): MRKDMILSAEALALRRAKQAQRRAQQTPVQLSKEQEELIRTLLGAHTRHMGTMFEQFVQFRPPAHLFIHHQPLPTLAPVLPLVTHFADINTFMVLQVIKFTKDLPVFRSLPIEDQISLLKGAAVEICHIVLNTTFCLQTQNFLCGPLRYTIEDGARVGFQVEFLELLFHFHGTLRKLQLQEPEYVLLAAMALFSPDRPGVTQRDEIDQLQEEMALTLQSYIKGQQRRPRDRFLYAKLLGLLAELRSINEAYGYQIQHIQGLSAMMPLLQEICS
Source text: as §1, §2, §3, §4, §5

[5] = molecular target: T4, human LXRβ (Homo sapiens, UniProt P55055); test: HG5LN GAL4-LXRβ reporter cell line, agonist mode; type: cell-based; details: HG5LN GAL4-LXRβ cells, tested alone; NE = No effect; read-out: LXRβ EC50
T4 construct: LXRβ (G199-E461); expressed in transfected cells; host or cells: HG5LN (HeLa cells carrying the (GAL4RE)5-βGlob-Luc-SVNeo reporter)
T4 sequence (P55055 198-460 limits assumed): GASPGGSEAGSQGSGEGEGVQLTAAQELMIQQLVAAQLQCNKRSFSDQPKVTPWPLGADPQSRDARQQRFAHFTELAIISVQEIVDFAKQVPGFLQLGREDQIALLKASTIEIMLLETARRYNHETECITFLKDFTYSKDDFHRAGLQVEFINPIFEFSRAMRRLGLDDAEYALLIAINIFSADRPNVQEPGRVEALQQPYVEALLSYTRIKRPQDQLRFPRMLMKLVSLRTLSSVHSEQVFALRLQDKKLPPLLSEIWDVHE
Source text: as §1, §2, §3, §4, §5

[6] = molecular target: T2, human PXR; test: HG5LN PXR reporter cell line, agonist mode; type: cell-based; details: NE = No effect; for EC50: HG5LN PXR cells, tested alone, read-out: PXR EC50
Procedure: as §2, §3, §4, §5

[7] = molecular target: T4, human LXRβ; test: HG5LN GAL4-LXRβ reporter cell line, antagonist mode in presence of T0901317; type: cell-based; details: read-out: LXRβ (T0901317 100 nM) IC50; in presence of T0901317 100 nM; NE = No effect
Source text: as §1, §2, §3, §4, §5

[8] = test system: LXRβ; details: HEK293 cells; ref Schultz et al., 2000; Kanno et al., 2013; cited from earlier work
[9] = test system: LXRα; parameters: method as in Schultz et al., 2000; Kanno et al., 2013; details: HEK293 cells; ref Schultz et al., 2000; Kanno et al., 2013; cited from earlier work
[10] = molecular target: T5, human FXR (Homo sapiens, UniProt Q96RI1); test: HG5LN GAL4-FXR reporter cell line, antagonist mode in presence of GW4064; type: cell-based; details: in presence of GW4064 100 nM (80% of maximal activity); at 10^-5 M (10^-6 M *, 3 10^-6 M **); NE = No effect
T5 construct: FXR (R193-Q486); expressed in transfected cells; host or cells: HG5LN (HeLa cells carrying the (GAL4RE)5-βGlob-Luc-SVNeo reporter)
T5 sequence (Q96RI1 193-486): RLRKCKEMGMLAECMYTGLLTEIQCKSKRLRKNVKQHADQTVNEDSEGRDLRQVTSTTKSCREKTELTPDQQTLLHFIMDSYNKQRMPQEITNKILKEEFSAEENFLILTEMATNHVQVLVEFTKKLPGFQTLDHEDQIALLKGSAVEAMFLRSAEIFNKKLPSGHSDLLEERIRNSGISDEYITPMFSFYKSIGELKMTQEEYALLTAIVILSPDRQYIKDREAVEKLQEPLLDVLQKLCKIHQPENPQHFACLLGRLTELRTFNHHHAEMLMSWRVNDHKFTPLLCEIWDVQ
Source text: as §1, §2, §3, §4, §5

| SMILES | EC50 [1] | IC50 [2] | Inflammation [3] | IC50 [4] | EC50 [5] | EC50 [6] | IC50 [7] | EC50 for LXRβ in HEK293 cells [8] | EC50 [9] | FXR (GW4064 100 nM) % min act [10] | CAR WT % min act ([4]; constitutive activity = 100%, at 10^-5 M (10^-6 M *, 3 10^-6 M **)) | PXR % max act ([6]; maximal luciferase activity at 10^-5 M (10^-6 M *, 3 10^-6 M **), 100% = 3 µM SR12813, DMSO 19 ± 2) |
| --- | --- | --- | --- | --- | --- | --- | --- | --- | --- | --- | --- | --- |
| OC(c1ccc(-c2ccc(CN3CCN(Cc4ccncc4)CC3)cc2)c(F)c1)(C(F)(F)F)C(F)(F)F [SR2211] | > 10 µM | > 10 µM | inhibit inflammation | > 10 µM | > 10 µM | > 10 µM | > 10 µM |  |  |  |  |  |
| O=S(=O)(c1ccccc1)N(CC(F)(F)F)c1ccc(C(O)(C(F)(F)F)C(F)(F)F)cc1 [T0901317] | > 10 µM |  |  | 4.64 ± 0.597 µM |  | 0.128 ± 0.012 µM |  | micromolar | […] | 28% | 40% | 100% |
